Reference: patent US20090291942A1, “IMIDAZO PYRIDINE DERIVATIVES” (priority 2008, published 2009)
Structures can show the parent of a compound that is named as a salt.

Each compound was assayed against T1, human GPR4 (Homo sapiens, UniProt P46093) (assay: Cell-based assay for human GPR4 activity (pH-induced cAMP formation, HTRF)). Details: HeLa cells stably expressing human GPR4, pH-induced cAMP formation.
T1 construct: expressed in transfected cells
Procedure: a) Cell-Based Assay for Human GPR4 Activity
HeLa cells stably expressing human GPR4 were established by transfecting the cells with a construct containing the human GPR4 coding sequence. The cells were grown in DMEM/HAM's F12 medium supplemented with 10% fetal calf serum (FCS), 100 u/ml penicillin, 100 μg/ml streptomycin and 400 μg/ml G418 and 10 mM Hepes pH 8.0. pH-induced formation of cAMP was determined using the HTRF technology as provided by CisBio Inc. The cells were seeded in 384-well plates and cultured for 24 hours at 37° C., 5% CO2 before performing the assay. Medium was removed and 10 μl buffer A (HBS, 10 mM Hepes, pH 8, 2 mM IBMX) was added. For compound testing, buffer A with 2× concentrated compounds was used. Cells were incubated for 15 min at room temperature. 10 μl buffer B (HBS, 30 mM Hepes, specific pH) was added to reach the appropriate final pH for stimulation (see below) and incubation was continued for 15 min at room temperature. […] HBS: 130 mM NaCl, 0.9 mM NaH2PO4, 5.4 mM KCl, 0.8 mM MgSO4, CaCl2 1.8 mM, 25 mM glucose, 10-30 mM Hepes. Adjustment of HBS buffers: Bf A Bf B Final stimulation pH (1 volume buffer A+1 volume buffer B)
Compounds were diluted from fresh stock solutions at 10 mM in DMSO to 2 mM and then used for serial dilutions in DMSO.

T1 sequence (P46093 whole entry): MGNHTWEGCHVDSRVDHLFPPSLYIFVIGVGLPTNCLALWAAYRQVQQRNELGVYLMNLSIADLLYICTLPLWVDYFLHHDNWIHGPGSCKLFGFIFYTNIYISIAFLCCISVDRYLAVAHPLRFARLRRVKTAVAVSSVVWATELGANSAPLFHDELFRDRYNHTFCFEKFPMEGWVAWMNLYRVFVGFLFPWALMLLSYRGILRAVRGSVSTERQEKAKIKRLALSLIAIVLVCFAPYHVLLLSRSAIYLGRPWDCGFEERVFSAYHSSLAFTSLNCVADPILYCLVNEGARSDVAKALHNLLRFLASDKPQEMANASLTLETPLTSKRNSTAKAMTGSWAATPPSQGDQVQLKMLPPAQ

| Structure (SMILES) | IC50 [nM] |
| --- | --- |
| CCc1nc2c(C)cc(C)nc2n1Cc1ccc(/C=C/CN2CCC(N3CCOCC3)CC2)cc1 [Example 34, 2-Ethyl-5,7-dimethyl-3-{4-[(E)-3-(4-morpholin-4-yl-piperidin-1-yl)-propenyl]-benzyl}-3H-imidazo[4,5-b]pyridine dihydrochloride] | 182 |
| CCc1nc2c(C)cc(C)nc2n1Cc1ccc(/C=C/CN2CCC(N3CCN(C)CC3)CC2)cc1 [Example 35, 2-Ethyl-5,7-dimethyl-3-(4-{(E)-3-[4-(4-methyl-piperazin-1-yl)-piperidin-1-yl]-propenyl}-benzyl)-3H-imidazo[4,5-b]pyridine] | 342 |
| CCc1nc2c(C)cc(C)nc2n1Cc1ccc(/C=C/CN2CCC(O)CC2)cc1 [Example 36, 1-{(E)-3-[4-(2-Ethyl-5,7-dimethyl-imidazo[4,5-b]pyridin-3-ylmethyl)-phenyl]-allyl}-piperidin-4-ol] | 477 |
| CCc1nc2c(C)cc(C)nc2n1Cc1ccc(/C=C/CN2CCC(OC)CC2)cc1 [Example 37, 2-Ethyl-3-{4-[(E)-3-(4-methoxy-piperidin-1-yl)-propenyl]-benzyl}-5,7-dimethyl-3H-imidazo[4,5-b]pyridine] | 419 |
| CCc1nc2c(C)cc(C)nc2n1Cc1ccc(/C=C/CN2CCC(c3c[nH]c4ccccc34)CC2)cc1 [Example 40, 2-Ethyl-3-(4-{(E)-3-[4-(1H-indol-3-yl)-piperidin-1-yl]-propenyl}-benzyl)-5,7-dimethyl-3H-imidazo[4,5-b]pyridine hydrochloride] | 704 |
| CCc1nc2c(C)cc(C)nc2n1Cc1ccc(/C=C/CN2[C@@H]3CC[C@H]2CC(n2cnc4ccccc42)C3)cc1 (stereo partly drawn) [Example 41, 3-{4-[(E)-3-((1R,5S)-3-Benzoimidazol-1-yl-8-aza-bicyclo[3.2.1]oct-8-yl)-propenyl]-benzyl}-2-ethyl-5,7-dimethyl-3H-imidazo[4,5-b]pyridine hydrochloride] | 799 |
| CCc1nc2c(C)cc(C)nc2n1Cc1ccc(/C=C/CN2CCNCC2)cc1 [Example 42, 2-Ethyl-5,7-dimethyl-3-[4-((E)-3-piperazin-1-yl-propenyl)-benzyl]-3H-imidazo[4,5-b]pyridine] | 162 |
| CCCN1CCN(C/C=C/c2ccc(Cn3c(CC)nc4c(C)cc(C)nc43)cc2)CC1 [Example 45, 2-Ethyl-5,7-dimethyl-3-{4-[(E)-3-(4-propyl-piperazin-1-yl)-propenyl]-benzyl}-3H-imidazo[4,5-b]pyridine] | 46 |
| CCCC(C)N1CCN(C/C=C/c2ccc(Cn3c(CC)nc4c(C)cc(C)nc43)cc2)CC1 (centres unmarked) [Example 54, 2-Ethyl-5,7-dimethyl-3-(4-{(E)-3-[4-(1-methyl-butyl)-piperazin-1-yl]-propenyl}-benzyl)-3H-imidazo[4,5-b]pyridine dihydrochloride] | 166 |
| CCc1nc2c(C)cc(C)nc2n1Cc1ccc(/C=C/CN2CCN(C3CCCCC3)CC2)cc1 [Example 57, 3-{4-[(E)-3-(4-Cyclohexyl-piperazin-1-yl)-propenyl]-benzyl}-2-ethyl-5,7-dimethyl-3H-imidazo[4,5-b]pyridine dihydrochloride] | 121 |
| CCc1nc2c(C)cc(C)nc2n1Cc1ccc(/C=C/CN2CCN(CCN(C)C)CC2)cc1 [Example 58, [2-(4-{(E)-3-[4-(2-Ethyl-5,7-dimethyl-imidazo[4,5-b]pyridin-3-ylmethyl)-phenyl]-allyl}-piperazin-1-yl)-ethyl]-dimethyl-amine trihydrochloride] | 255 |
| CCc1nc2c(C)cc(C)nc2n1Cc1ccc(/C=C/CN2CCN(CCN(CC)CC)CC2)cc1 [Example 60, Diethyl-[2-(4-{(E)-3-[4-(2-ethyl-5,7-dimethyl-imidazo[4,5-b]pyridin-3-ylmethyl)-phenyl]-allyl}-piperazin-1-yl)-ethyl]-amine hydrochloride] | 995 |
| CCc1nc2c(C)cc(C)nc2n1Cc1ccc(/C=C/CN2CCN(CCOC)CC2)cc1 [Example 62, 2-Ethyl-3-(4-{(E)-3-[4-(2-methoxy-ethyl)-piperazin-1-yl]-propenyl}-benzyl)-5,7-dimethyl-3H-imidazo[4,5-b]pyridine dihydrochloride] | 552 |
| CCOCCN1CCN(C/C=C/c2ccc(Cn3c(CC)nc4c(C)cc(C)nc43)cc2)CC1 [Example 63, 3-(4-{(E)-3-[4-(2-Ethoxy-ethyl)-piperazin-1-yl]-propenyl}-benzyl)-2-ethyl-5,7-dimethyl-3H-imidazo[4,5-b]pyridine] | 829 |

The remaining compounds from weak to strong by IC50, led by results:

| IC50 [nM] | Structure (SMILES) |
| --- | --- |
| 718 | CCc1nc2c(C)cc(C)nc2n1Cc1ccc(/C=C/CN2CCC(OCC(=O)NC)CC2)cc1 [Example 38, 2-(1-{(E)-3-[4-(2-Ethyl-5,7-dimethyl-imidazo[4,5-b]pyridin-3-ylmethyl)-phenyl]-allyl}-piperidin-4-yloxy)-N-methyl-acetamide] |
| 499 | CCc1nc2c(C)cc(C)nc2n1Cc1ccc(/C=C/CN2CCN(CCN(C(C)C)C(C)C)CC2)cc1 [Example 61, [2-(4-{(E)-3-[4-(2-Ethyl-5,7-dimethyl-imidazo[4,5-b]pyridin-3-ylmethyl)-phenyl]-allyl}-piperazin-1-yl)-ethyl]-diisopropyl-amine trihydrochloride] |
| 463 | CCc1nc2c(C)cc(C)nc2n1Cc1ccc(/C=C/CN2CCN(CC(C)C)CC2)cc1 [Example 50, 2-Ethyl-3-{4-[(E)-3-(4-isobutyl-piperazin-1-yl)-propenyl]-benzyl}-5,7-dimethyl-3H-imidazo[4,5-b]pyridine dihydrochloride] |
| 410 | CCc1nc2c(C)cc(C)nc2n1Cc1ccc(/C=C/CN2CCN(C3CC3)CC2)cc1 [Example 47, 3-{4-[(E)-3-(4-Cyclopropyl-piperazin-1-yl)-propenyl]-benzyl}-2-ethyl-5,7-dimethyl-3H-imidazo[4,5-b]pyridine dihydrochloride] |
| 280 | CCc1nc2c(C)cc(C)nc2n1Cc1ccc(/C=C/CN2CCC(O)(CN3CCOCC3)CC2)cc1 [Example 39, 1-{(E)-3-[4-(2-Ethyl-5,7-dimethyl-imidazo[4,5-b]pyridin-3-ylmethyl)-phenyl]-allyl}-4-morpholin-4-ylmethyl-piperidin-4-ol] |
| 261 | CCc1nc2c(C)cc(C)nc2n1Cc1ccc(/C=C/CN2CCN(CC)CC2)cc1 [Example 44, 2-Ethyl-3-{4-[(E)-3-(4-ethyl-piperazin-1-yl)-propenyl]-benzyl}-5,7-dimethyl-3H-imidazo[4,5-b]pyridine dihydrochloride] |
| 231 | CCc1nc2c(C)cc(C)nc2n1Cc1ccc(/C=C/CN2CCN(CCCN(C)C)CC2)cc1 [Example 59, [3-(4-{(E)-3-[4-(2-Ethyl-5,7-dimethyl-imidazo[4,5-b]pyridin-3-ylmethyl)-phenyl]-allyl}-piperazin-1-yl)-propyl]-dimethyl-amine dihydrochloride] |
| 194 | CCCCN1CCN(C/C=C/c2ccc(Cn3c(CC)nc4c(C)cc(C)nc43)cc2)CC1 [Example 48, 3-{4-[(E)-3-(4-Butyl-piperazin-1-yl)-propenyl]-benzyl}-2-ethyl-5,7-dimethyl-3H-imidazo[4,5-b]pyridine dihydrochloride] |
| 194 | CCc1nc2c(C)cc(C)nc2n1Cc1ccc(/C=C/CN2CCN(C(CC)CC)CC2)cc1 [Example 53, 2-Ethyl-3-(4-{(E)-3-[4-(1-ethyl-propyl)-piperazin-1-yl]-propenyl}-benzyl)-5,7-dimethyl-3H-imidazo[4,5-b]pyridine dihydrochloride] |
| 165 | CCc1nc2c(C)cc(C)nc2n1Cc1ccc(/C=C/CN2CCN(C3CCCC3)CC2)cc1 [Example 56, 3-{4-[(E)-3-(4-Cyclopentyl-piperazin-1-yl)-propenyl]-benzyl}-2-ethyl-5,7-dimethyl-3H-imidazo[4,5-b]pyridine] |
| 161 | CCc1nc2c(C)cc(C)nc2n1Cc1ccc(/C=C/CN2CCN(C(C)(C)C)CC2)cc1 [Example 51, 3-{4-[(E)-3-(4-tert-Butyl-piperazin-1-yl)-propenyl]-benzyl}-2-ethyl-5,7-dimethyl-3H-imidazo[4,5-b]pyridine] |
| 140 | CCc1nc2c(C)cc(C)nc2n1Cc1ccc(/C=C/CN2CCN(CCC(C)C)CC2)cc1 [Example 52, 2-Ethyl-5,7-dimethyl-3-(4-{(E)-3-[4-(3-methyl-butyl)-piperazin-1-yl]-propenyl}-benzyl)-3H-imidazo[4,5-b]pyridine dihydrochloride] |
| 139 | CCc1nc2c(C)cc(C)nc2n1Cc1ccc(/C=C/CN2CCN(C)CC2)cc1 [Example 43, 2-Ethyl-5,7-dimethyl-3-{4-[(E)-3-(4-methyl-piperazin-1-yl)-propenyl]-benzyl}-3H-imidazo[4,5-b]pyridine] |
| 100 | CCc1nc2c(C)cc(C)nc2n1Cc1ccc(/C=C/CN2CCN(C(C)CC)CC2)cc1 (centres unmarked) [Example 49, 3-{4-[(E)-3-(4-sec-Butyl-piperazin-1-yl)-propenyl]-benzyl}-2-ethyl-5,7-dimethyl-3H-imidazo[4,5-b]pyridine] |
| 86 | CCc1nc2c(C)cc(C)nc2n1Cc1ccc(/C=C/CN2CCN(CC3CCC3)CC2)cc1 [Example 55, 3-{4-[(E)-3-(4-Cyclobutylmethyl-piperazin-1-yl)-propenyl]-benzyl}-2-ethyl-5,7-dimethyl-3H-imidazo[4,5-b]pyridine dihydrochloride] |
